Assay results reported in patent US8105581B2, “Compositions and methods for inducing neuronal differentiation” (The Scripps Research Institute, priority 2005, dated 2012).
“Also recorded” adds a separate entry of the source.

Tests used:
Type in all cases: cell-based, rat
[1] = tested on: HCN cells (adult hippocampal neural progenitor cells); experiment: Neuronal and astroglial differentiation of HCN cells by TuJ1/GFAP double-immunofluorescence staining; details: for Relative activity at ECmax: ECmax relative to Compound A, compound 2 (100) and DMSO (0 or no active, N/A), AP = Anti-proliferation
Method: Cell Culture: Neural precursor cells isolated from the hippocampus of adult female Fischer 344 rats^(1) were maintained in N2 supplemented (Invitrogen) DMEM: Ham's F12 (Omega scientific) medium containing 20 ng/mL FGF-2 (PeproTech Inc.) HCN cells were expanded and maintained in an undifferentiated state on a polyornithine/laminin-coated dish in a defined serum-free growth medium (DMEM/F12 supplemented with N2 and 20 ng/ml bFGF) in a homogeneous monolayer. Neuronal and astroglial differentiation was analyzed directly with double-immunofluorescence staining of βIII tubulin (TuJ1) as a neuronal marker and glial fibrillary acidic protein (GFAP) as an astroglial marker. A combinatorial heterocycle library of 50,000 compounds was screened using undifferentiated, early passage HCN cells plated onto polyornithine/lamin-coated 384-well plates at a density of 6,000 cells/well in complete growth medium. After overnight incubation, the medium was exchanged with bFGF-free basal medium, and 5 μM of the compounds (final concentration) were added to each well. After treatment with compound for four days, cells were fixed and stained with βIII tubulin/TUJ1 and GFAP antibodies, the morphology of positively stained cells was analyzed, and the number of cells with the desired phenotypes was counted.
(§1) Immunocytochenzistry: Cells were fixed with 4% paraformaldehyde for 30 min and washed with PBS, and then blocked for 1 hour at room temperature in PBS containing 0.3% Triton X-100 and 5% donkey serum (PBS-B). Samples were incubated in PBS-B containing dilutions (1:1500) of two primary antibodies for 24 hrs at 4° C., washed three times with PBS, and incubated w secondary antibodies conjugated to Cy3 (Jackson ImmunoResearch Laboratories, Inc.) Alexa Fluor 488 (Molecular Probe Inc.). The samples then were treated with 1 μg/mL 4′,6-diamidino-2-phenylindole (DAPI) for 30 min at room temperature, and then washed three times with PBS.
A combinatorial heterocycle library of 50,000 compounds was screened using undifferentiated, early passage HCN cells plated onto polyornithine/lamin-coated 384-well plates at a density of 6,000 cells/well in complete growth medium. After overnight incubation, the medium was exchanged with bFGF-free basal medium, and 5 μM of the compounds (final concentration) were added to each well. After treatment with compound for four days, cells were fixed and stained with βIII tubulin/TUJ1 and GFAP antibodies, the morphology of positively stained cells was analyzed, and the number of cells with the desired phenotypes was counted.

NeuroD1 and NeuN = experiment: BrdU labeling with immunocytochemistry to detect NeuroD1 and NeuN; details: HCN cells (FIG. 4)
Method: as §1
(§2) RA). After 5 hours, the medium was changed and 10 μM of 5-bromo-2′-deoxy-uridine (BrdU) (final concentration) was added to each well. After treatment with BrdU for 2 hours, cells were fixed, washed three times with 01M Tris-buffer, and incubated in 2N HCl at 37° for 30 min. After treatment with 0.1M borate buffer (pH 8.5) for 10 min, cells were washed three times with PBS and treated with blocking buffer (PBS containing 0.3% Triton-X and 5% donkey serum) for 60 min. After overnight incubation with anti-BrdU (1:400) antibody, cells were washed with PBS and incubated with secondary antibody conjugated to Cy3 (1:1000) for 2 hours. After washing with PBS, BrdU-positive cells were counted.

HCN cells [2] = experiment: BrdU proliferation assay; details: HCN cells treated 5 hours in bFGF-free N2 medium; 15, 10, 5 μM Compound A or 1, 0.5, 0.25 μM RA; BrdU 2 hours
Method: BrdU proliferation assay: Cells were treated with compounds (Compound A and
as §2

HCN cells [3] = experiment: Astroglial differentiation of HCN cells induced by LIF/BMP2/FBS; details: 50 ng/ml LIF, 50 ng/ml BMP2 and 0.5% FBS; compound A 20 μM, RA 5 μM; listed as Compound A
NeuroD1 = experiment: Semi-quantitative RT-PCR of marker genes: NeuroD1; details: HCN cells, 10 μM Compound A versus compound-free N2 medium
HCN cells [4] = experiment: Cytotoxic effects on HCN cells
Sox2 = experiment: Semi-quantitative RT-PCR of marker genes: Sox2; details: HCN cells, 10 μM Compound A versus compound-free N2 medium
[5] = HCN cells treated with Compound A

| Compound | Relative activity at ECmax [1] | expression of neuron-specific marker genes NeuroD1 and NeuN (NeuroD1 and NeuN) | cells differentiated into neuronal cells (immunostaining with TuJ1 and characteristic neuronal morphology) [1, 5] | neuronal differentiation-inducing activity (screen and sublibrary) ([1]; HCN cells, bFGF-free basal medium, four days) | lineage specificity: GFAP-positive (astroglial) versus neuronal cells after treatment ([1]; four days in N2 media, 10 μM Compound A or 2 μM RA (FIG. 2)) | staining for later stage neuronal markers neurofilament-H and Map2(a+b) ([1]; seven days of treatment with 10 μM Compound A) | cell proliferation (BrdU-positive cells) (HCN cells [2]) | inhibition of astroglial differentiation induced by LIF and BMP2 (HCN cells [3]) | NeuroD1 (neuronal cell marker) mRNA level (NeuroD1) | visible cytotoxic effects (HCN cells [4]; [5]) | Sox2 (neural progenitor marker) mRNA level (Sox2) | cytotoxicity (HCN cells [4]; over 2 μM in growth factor (bFGF or LIF/BMP2)-free basal medium) |
| --- | --- | --- | --- | --- | --- | --- | --- | --- | --- | --- | --- | --- |
| ethyl 4-(2-phenylthiazol-4-ylamino) benzoate [Compound 1] | 10 | – | – | – | – | – | – | – | – | – | – | – |
| CCOC(=O)c1ccc(N(C)c2csc(-c3ccccc3)n2)cc1 [Compound 2] | 100 | induces expression of neuron-specific marker genes | more than 90% | highest activity among the analogues tested | GFAP-positive cells were very rarely detected | positive staining | significantly slowed cell proliferation | can also inhibit astroglial differentiation; also recorded: can competitively suppress astrogliogenesis by LIF/BMP2/FBS in a dose-dependent manner | up-regulated | without visible cytotoxic effects | down-regulated | – |
| CC1=C(/C=C/C(C)=C/C=C/C(C)=C/C(=O)O)C(C)(C)CCC1 [RA, retinoic acid, reference compound] | – | – | – | – | – | – | – | – | – | – | – | significant cytotoxicity |
